Source: patent publication US20150238394A1, “Triggerable Compositions For Two-Stage, Controlled Release of Proactive Chemistry Using Aldehydes” (Kimberly-Clark Worldwide, Inc., priority 2014, published 2015)

test: Volatility and smell of non-salt acetals, neat and embedded in polymer films brushed on polyethylene film and air-dried; format: physicochemical; details: embedded in PVP/VA, Eudragit E-100 and Eudragit S-100, brushed on polyethylene films, air-dried
Description: 1. Acetal of citronellal with ethanol and acetal of vanillin with ethanol were custom-synthesized. Their structures are shown below. […] The acetals were embedded in PVP/VA, Eudragit E-100, and Eudragit S-100 by simply dissolving the acetals in the solutions of those polymers. The solutions were then brushed on polyethylene films and air-dried. The parent aldehydes were also embedded in the same ratio in those polymers. Strong smells of both parent aldehydes and acetals could be nasally detected after drying. Those non-salt based acetals cannot effectively reduce the volatility of aldehyde-based fragrances and are not good pro-actives for stabilizing those fragrances.

Smell nasally detected after drying, Strong smells:
COc1cc(C=O)ccc1O [vanillin]
CC(C)=CCCC(C)CC=O (stereo not shown) [citronellal]
CCOC(OCC)c1ccc(O)c(OC)c1 [acetal of vanillin with ethanol]
CCOC(CC(C)CCC=C(C)C)OCC (stereo not shown) [Acetal of citronellal with ethanol]
